In the assay the target is T1, GST-RIPK1 (recombinant GST-RIPK1 kinase domain (residues 1-327)) (Homo sapiens, UniProt Q13546).
T1 construct: recombinant GST-RIPK1 kinase domain (residues 1-327) enzyme produced from baculovirus-transfected Sf21 cells; host or cells: baculovirus-transfected Sf21 insect cells
T1 sequence (Q13546 1-327): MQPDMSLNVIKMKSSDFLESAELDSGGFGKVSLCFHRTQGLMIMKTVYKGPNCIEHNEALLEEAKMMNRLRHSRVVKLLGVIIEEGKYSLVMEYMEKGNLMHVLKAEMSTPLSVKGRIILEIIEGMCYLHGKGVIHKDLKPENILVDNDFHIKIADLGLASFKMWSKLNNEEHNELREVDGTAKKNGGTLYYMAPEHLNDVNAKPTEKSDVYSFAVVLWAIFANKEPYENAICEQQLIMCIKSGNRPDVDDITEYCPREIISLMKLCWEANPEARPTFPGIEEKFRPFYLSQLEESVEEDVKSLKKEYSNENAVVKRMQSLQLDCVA
In words: RIPK1-ADP-Glo Enzymatic Assay. The class given is biochemical. Particulars: ten-point titration, top compound concentration of 100000 nM; 25 nM GST-RIPK1, 300 μM ATP, 3 μM dephosphorylated-MBP; 30 min pre-incubation, 150 min reaction. In a few lines:
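GST-RIPK1 kinase domain (residues 1-327, Sf21-expressed), 25 nM, preincubated 30 min with compound, then reacted 150 min with 300 μM ATP and 3 μM dephosphorylated MBP in pH 7.3 Hepes buffer, 1% DMSO. ADP measured by ADP-Glo luminescence; EC50 from ten-point titration (top 100000 nM), four-parameter fit.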
Background: ADP-Glo first removes unused ATP, then detects ADP through luciferase.

The EC50 is the midpoint of the concentration-response curve.

For `Cc1cc(OC2CC3(C2)O[C@@H]2CC[C@@H](c4ccccc4)N2C3=O)ccc1F` (stereo partly drawn) [Example 8.13, (5′S,7a′R)-3-(4-fluoro-3-methylphenoxy)-5′-phenyltetrahydro-3′H-spiro[cyclobutane-1,2′-pyrrolo[2,1-b][1,3]oxazol]-3′-one], the EC50 was 62 nM.

`O=C1N2[C@@H](CC[C@H]2c2cc(F)cc(F)c2)O[C@]12C[C@H](Oc1cccc3ncnn13)C2` [Example 9.26, (1r,3R,5′S,7a′R)-5′-(3,5-difluorophenyl)-3-[([1,2,4]triazolo[1,5-a]pyridin-5-yl)oxy]tetrahydro-3′H-spiro[cyclobutane-1,2′-pyrrolo[2,1-b][1,3]oxazol]-3′-one]: the EC50 is 276 nM.

As for `O=C1N2C(CC[C@H]2c2cnccn2)OC12CC(OCc1ccc(OC3CCOCC3)nc1)C2` (stereo partly drawn) [Example 18.57, (5′S)-3-({6-[(oxan-4-yl)oxy]pyridin-3-yl}methoxy)-5′-(pyrazin-2-yl)tetrahydro-3′H-spiro[cyclobutane-1,2′-pyrrolo[2,1-b][1,3]oxazol]-3′-one], the EC50 was found to be 109 nM.

With `N#Cc1cc(O[C@H]2C[C@@]3(C2)O[C@@H]2CC[C@@H](c4ccc(F)cn4)N2C3=O)ncn1` [Example 9.47, 6-{[(5′S,7a′R)-5′-(5-fluoropyridin-2-yl)-3′-oxotetrahydro-3′H-spiro[cyclobutane-1,2′-pyrrolo[2,1-b][1,3]oxazol]-3-yl]oxy}pyrimidine-4-carbonitrile], the EC50 amounted to 24 nM.

As for `N#Cc1cccc(OC2CC3(C2)O[C@@H]2CC[C@@H](c4cnccn4)N2C3=O)c1` (stereo partly drawn) [Example 19.15, 3-{[(5′S,7a′R)-3′-oxo-5′-(pyrazin-2-yl)tetrahydro-3′H-spiro[cyclobutane-1,2′-pyrrolo[2,1-b][1,3]oxazol]-3-yl]oxy}benzonitrile], the EC50 is 18 nM.

As to `O=C1N2C(CC[C@H]2c2cnccn2)OC12CC(OCc1ccc(-c3ccon3)cc1)C2` (stereo partly drawn) [Example 18.80, (5′S)-3-{[4-(1,2-oxazol-3-yl)phenyl]methoxy}-5′-(pyrazin-2-yl)tetrahydro-3′H-spiro[cyclobutane-1,2′-pyrrolo[2,1-b][1,3]oxazol]-3′-one], the EC50 was 45 nM.

For `O=C1N2[C@@H](CC[C@H]2c2ccccc2)OC12CC(Oc1nccc3nccn13)C2` (stereo partly drawn) [Example 8.20, (5′S,7a′R)-3-[(imidazo[1,2-c]pyrimidin-5-yl)oxy]-5′-phenyltetrahydro-3′H-spiro[cyclobutane-1,2′-pyrrolo[2,1-b][1,3]oxazol]-3′-one], the EC50 came to 20 nM.

With `O=C1N2C(CC[C@H]2c2cnccn2)OC12CC(OCc1cccc(Cn3ccnn3)c1)C2` (stereo partly drawn) [Example 18.26, (5′S)-5′-(pyrazin-2-yl)-3-({3-[(1H-1,2,3-triazol-1-yl)methyl]phenyl}methoxy) tetrahydro-3′H-spiro[cyclobutane-1,2′-pyrrolo[2,1-b][1,3]oxazol]-3′-one], the EC50 was determined as 34 nM.

`Cn1ccc([C@@H]2CC[C@H]3OC4(CC(Oc5cccnc5)C4)C(=O)N32)n1` (stereo partly drawn) [Example 19.8, (5′S,7a′R)-5′-(1-methyl-1H-pyrazol-3-yl)-3-[(pyridin-3-yl)oxy]tetrahydro-3′H-spiro[cyclobutane-1,2′-pyrrolo[2,1-b][1,3]oxazol]-3′-one]: the EC50 is 474 nM.

For the molecule `N#Cc1cccc(F)c1COC1CC2(C1)OC1CC[C@@H](c3cnccn3)N1C2=O` (stereo partly drawn) [Example 18.100, 3-fluoro-2-({[(5′S)-3′-oxo-5′-(pyrazin-2-yl)tetrahydro-3′H-spiro[cyclobutane-1,2′-pyrrolo[2,1-b][1,3]oxazol]-3-yl]oxy}methyl)benzonitrile], the concentration giving a half-maximal response (EC50) was found to be 472 nM.

In the case of `N#CCCc1ccc(COC2CC3(C2)OC2CC[C@@H](c4cnccn4)N2C3=O)cc1` (stereo partly drawn) [Example 18.47, 3-[4-({[(5′S)-3′-oxo-5′-(pyrazin-2-yl)tetrahydro-3′H-spiro[cyclobutane-1,2′-pyrrolo[2,1-b][1,3]oxazol]-3-yl]oxy}methyl)phenyl]propanenitrile], the EC50 was found to be 60 nM.

As for `COc1cc(COC2CC3(C2)OC2CC[C@@H](c4cnccn4)N2C3=O)cc2nccn12` (stereo partly drawn) [Example 18.83, (5′S)-3-[(5-methoxyimidazo[1,2-a]pyridin-7-yl)methoxy]-5′-(pyrazin-2-yl)tetrahydro-3′H-spiro[cyclobutane-1,2′-pyrrolo[2,1-b][1,3]oxazol]-3′-one], the EC50 came out at 140 nM.

`O=C1N2C(CC[C@H]2c2cnccn2)OC12CC(OCc1ccc(OCCF)nn1)C2` (stereo partly drawn) [Example 18.44, (5′S)-3-{[6-(2-fluoroethoxy)pyridazin-3-yl]methoxy}-5′-(pyrazin-2-yl)tetrahydro-3′H-spiro[cyclobutane-1,2′-pyrrolo[2,1-b][1,3]oxazol]-3′-one]: the EC50 worked out at 241 nM.

As for `O=C1N2C(CC[C@H]2c2cnccn2)OC12CC(OCc1ccccc1-n1cccn1)C2` (stereo partly drawn) [Example 18.53, (5′S)-5′-(pyrazin-2-yl)-3-{[2-(1H-pyrazol-1-yl)phenyl]methoxy}tetrahydro-3′H-spiro[cyclobutane-1,2′-pyrrolo[2,1-b][1,3]oxazol]-3′-one], the EC50 was 117 nM.

Regarding `O=C1N2[C@@H](CC[C@H]2c2cnccn2)OC12CC(OCc1ccccn1)C2` (stereo partly drawn) [Example 20.2, (5′S,7a′R)-5′-(pyrazin-2-yl)-3-[(pyridin-2-yl)methoxy]tetrahydro-3′H-spiro[cyclobutane-1,2′-pyrrolo[2,1-b][1,3]oxazol]-3′-one], the EC50 was 196 nM.

In the case of `O=C1N2[C@@H](CC[C@H]2c2cnccn2)OC12CC(Oc1ccccc1)C2` (stereo partly drawn) [Example 19.17, (5′S,7a′R)-3-phenoxy-5′-(pyrazin-2-yl)tetrahydro-3′H-spiro[cyclobutane-1,2′-pyrrolo[2,1-b][1,3]oxazol]-3′-one], the EC50 turned out to be 21 nM.

As for `O=C1N2[C@@H](CC[C@H]2c2ccc(F)cc2)O[C@]12C[C@H](Oc1ncnn3cccc13)C2` [Example 9.27, (1r,3R,5′S,7a′R)-5′-(4-fluorophenyl)-3-[(pyrrolo[2,1-f][1,2,4]triazin-4-yl)oxy]tetrahydro-3′H-spiro[cyclobutane-1,2′-pyrrolo[2,1-b][1,3]oxazol]-3′-one], the EC50 was 12 nM.

For the molecule `N#Cc1cc(OC2CC3(C2)O[C@@H]2CC[C@@H](c4cccc(F)c4F)N2C3=O)ncn1` (single isomer, unassigned) [Example 9.40, 6-{[(5′S,7a′R)-5′-(2,3-difluorophenyl)-3′-oxotetrahydro-3′H-spiro[cyclobutane-1,2′-pyrrolo[2,1-b][1,3]oxazol]-3-yl]oxy}pyrimidine-4-carbonitrile], the EC50 was 474 nM.

Consider `COc1ccc2cc(COC3CC4(C3)OC3CC[C@@H](c5cnccn5)N3C4=O)cc(C)c2n1` (stereo partly drawn) [Example 18.89, (5′S)-3-[(2-methoxy-8-methylquinolin-6-yl)methoxy]-5′-(pyrazin-2-yl)tetrahydro-3′H-spiro[cyclobutane-1,2′-pyrrolo[2,1-b][1,3]oxazol]-3′-one], for which the EC50 turned out to be 238 nM.

With `Cc1cc2c(O[C@H]3C[C@@]4(C3)O[C@@H]3CC[C@@H](c5cc(F)cc(F)c5)N3C4=O)ncnc2o1` [Example 9.32, (1r,3R,5′S,7a′R)-5′-(3,5-difluorophenyl)-3-[(6-methylfuro[2,3-d]pyrimidin-4-yl)oxy]tetrahydro-3′H-spiro[cyclobutane-1,2′-pyrrolo[2,1-b][1,3]oxazol]-3′-one], the EC50 is 8 nM.

Values taken from patent US20250154173A1 (Merck Sharp & Dohme LLC, priority 2023, published 2025).
